Values belong to the compound of their own block, whether it stands above or below them. Calls of active or inactive are those of the source.
Experiments:
[1] = target: Voltage-gated inwardly rectifying potassium channel KCNH2 (Homo sapiens, UniProt Q12809); settings: Potency;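 further: confirmatory quantitative high-throughput screen measuring inhibition of hERG channel activity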
CAAX prenyl protease 2 [2] = target: T1, CAAX prenyl protease 2 (Homo sapiens, UniProt Q9Y256); experiment: human Rce1 protease inhibitors, dose response, biochemical, plate reader, dry powder samples (AID 588848)
CAAX prenyl protease 2 [3] = target: T2, CAAX prenyl protease 2 (Saccharomyces cerevisiae S288c, UniProt Q03530); experiment: yeast Rce1 CaaX protease inhibitors, dose response, biochemical, plate reader, dry powder retest (AID 588851)
T2 sequence (Q03530 whole entry): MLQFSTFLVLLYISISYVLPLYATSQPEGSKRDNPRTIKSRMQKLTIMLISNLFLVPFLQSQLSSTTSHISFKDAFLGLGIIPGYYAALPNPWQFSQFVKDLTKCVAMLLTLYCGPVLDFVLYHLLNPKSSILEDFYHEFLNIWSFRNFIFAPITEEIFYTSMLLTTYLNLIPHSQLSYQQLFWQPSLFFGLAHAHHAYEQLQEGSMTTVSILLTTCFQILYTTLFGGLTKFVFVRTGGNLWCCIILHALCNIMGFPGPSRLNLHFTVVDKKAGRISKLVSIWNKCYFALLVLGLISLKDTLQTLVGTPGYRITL

Cysteine protease ATG4B = Cysteine protease ATG4B (Homo sapiens, UniProt Q9Y4P1); assay type: functional;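 further: Fluorescence-based dose-response confirmation assay measuring inhibition of ATG4B activity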
Phospholipase A2 = Phospholipase A2 (Homo sapiens, UniProt P04054); assay type: functional;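 further: confirmatory dose-response counterscreen on phospholipase A2, testing hits that came from an ultra-high-throughput screen for ATG4B inhibitors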
Candida albicans [4] = experiment: growth inhibition of resistant C. albicans, dose response, CaCi-8 strain, fluconazole, dry powder, set 4 (AID 488950); assay type: functional, organism-based
Candida albicans [5] = experiment: fluconazole resistance reversal in C. albicans, dose response, CaCi-2 strain, Alamar Blue, dry powder, set 4 (AID 488943); assay type: functional, organism-based
Candida albicans [6] = experiment: growth inhibition of resistant C. albicans, dose response, CaCi-8, fluconazole, Alamar Blue, dry powder (AID 488807); assay type: functional, organism-based
NIH3T3 = experiment: cytotoxicity in NIH-3T3 fibroblasts, dose response, cytotoxicity control for antifungal drug resistance project, cell-based, Alamar Blue, fluconazole, dry powder (AID 488809); assay type: functional; settings: Mus musculus
CAAX prenyl protease 2 [7] = target: T2, CAAX prenyl protease 2; assay type: biochemical
CAAX prenyl protease 2 [8] = target: T1, CAAX prenyl protease 2; experiment: human Rce1 protease inhibitors, dose response, biochemical, yeast membranes, quenched-peptide fluorescence, cherry-pick (AID 588849)
[9] = target: Transitional endoplasmic reticulum ATPase (Homo sapiens, UniProt P55072, C522A); experiment: C522A mutant p97 ATPase inhibitors, dose response, counter-screen for p97 inhibitor project, biochemical, luminescence (AID 1544)
[10] = target: Transitional endoplasmic reticulum ATPase (Homo sapiens, UniProt P55072); experiment: p97 ATPase inhibitors, dose response, biochemical (AID 1534)
[11] = target: Glucose-6-phosphate 1-dehydrogenase (Homo sapiens, UniProt P11413); experiment: human G6PD enzyme inhibitors, dose response, selectivity assay for P. falciparum G6PD inhibitor project, biochemical, fluorescence (AID 504792); assay type: functional
Beta-arrestin-1 = Beta-arrestin-1 (Homo sapiens, UniProt P49407); experiment: inhibitors of arrestin peptide binding to AP2, dose response, biochemical, cherry pick 1, beta2-adaptin appendage, flow cytometry (AID 588783); assay type: functional
Genome polyprotein = Genome polyprotein (dengue virus type 2, UniProt P29990); experiment: Dengue-2 NS5 methyltransferase inhibitors, primary screen, biochemical, confirmation dose response (AID 588689); assay type: functional
[12] = target: T3, Polyadenylate-binding protein 1 (Homo sapiens, UniProt P11940); experiment: PABP1 MLLE–PAM2 interaction inhibitors, dose response, miRNA deadenylation inhibitor project, biochemical, fluorescence polarization, Cy5-PAM2 peptide, secondary (AID 602260); assay type: functional; settings: read-out: IC50_Mean
[13] = target: T3, Polyadenylate-binding protein 1; experiment: PABP1 MLLE–PAM2 binding inhibitor potency, dose response, biochemical, fluorescence polarization, FITC-PAM2 peptide (AID 602259); assay type: functional; settings: read-out: IC50_Mean
Caspase-6 = target: T4, Caspase-6 (Homo sapiens, UniProt P55212); experiment: human caspase-6 inhibitors, dose response, biochemical, VEID-R110 fluorescence, cherry-pick (AID 720632)
T4 sequence (P55212 whole entry): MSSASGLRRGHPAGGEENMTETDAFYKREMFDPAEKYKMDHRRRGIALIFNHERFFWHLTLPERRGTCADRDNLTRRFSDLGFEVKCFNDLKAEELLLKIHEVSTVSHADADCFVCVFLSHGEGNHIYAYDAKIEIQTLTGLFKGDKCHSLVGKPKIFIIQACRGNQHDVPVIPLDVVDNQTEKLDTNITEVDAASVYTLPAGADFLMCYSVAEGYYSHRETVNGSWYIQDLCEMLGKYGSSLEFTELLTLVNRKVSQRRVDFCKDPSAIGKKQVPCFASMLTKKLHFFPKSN

[14] = NIH-3T3 fibroblast cytotoxicity, dose response, cytotoxicity control, cell-based, fluorescence, Alamar Blue, secondary assay (AID 2327); assay type: functional;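 further: NIH-3T3 mouse fibroblasts cultured with fluconazole at 8 µg/mL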
[15] = test system: Streptococcus sp. 'group A'; experiment: growth inhibition of control SK(-) GAS strain, dose response, counter-screen for streptokinase expression inhibitor project, luminescence, kanamycin, BacTiterGlo, confirmation (AID 1900); assay type: functional, organism-based
cells [16] = assay type: functional, cell-based
[17] = C. albicans growth with fluconazole, confirmation, fluorescence, retest (AID 2467); assay type: functional, cell-based
[18] = inhibitors of intracellular T. cruzi replication, confirmation, NIH3T3 host cells, beta-gal luminescence (AID 2044); assay type: functional, cell-based;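 further: intracellular parasites grown in NIH/3T3 mouse fibroblasts as host cells; luminescent beta-galactosidase reporter signal from transgenic T. cruzi replicating inside host cells; inhibitors lower the luminescence signal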
cells [19] = assay type: functional, cell-based; remark: listed apart in the source
[20] = target: Serine/threonine-protein phosphatase (Candida dubliniensis (strain CD36 / CBS 7987 / NCPF 3949 / NRRLY-17841) (Yeast), UniProt B9W6M3); experiment: calcineurin pathway inhibitors in yeast reporter, dose response, S. cerevisiae, CDRE-lacZ, luminescence, secondary (AID 2388); assay type: functional, cell-based;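 further: yeast reporter cells carrying a calcineurin-responsive lacZ construct stimulated with calcium chloride; luminescent beta-galactosidase reporter signal in whole cells rather than isolated phosphatase activity; potency for inhibition where a drop in reporter signal means calcineurin blockade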
[21] = cytotoxicity toward NIH3T3 fibroblasts, dose response, counter-screen, cell-based, ATP luminescence, mouse fibroblasts (AID 2010); assay type: functional;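 further: cells exposed to compound for about 90 hours before reading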
Streptococcus = experiment: Group A Streptococcus viability loss, dose response, counter-screen for streptokinase expression inhibitor project, luminescence, BacTiterGlo (AID 1915); assay type: functional, organism-based;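 further: potency for reduction of bacterial viability or growth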
[22] = cytotoxicity in HEK-293T cells, dose response, cytotoxicity control for TCR NF-kB inhibitor project, luminescence, T-cell screen hits (AID 489026); assay type: functional, cell-based;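 further: cells exposed to compound about 14 hours before the viability readout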
HEK293 [23] = experiment: inhibitors of LMP1-driven NF-kB reporter, dose response, cell-based, HEK293, luciferase, cherry-pick (AID 588343); assay type: functional; settings: Homo sapiens
HEK293 [24] = experiment: cytotoxicity in HEK293T NF-kB-Luc cells, SAR follow-up, cytotoxicity control for NF-kB activator project, cell-based, resazurin fluorescence (AID 493251); assay type: functional; settings: Homo sapiens
Jurkat = experiment: SAR Analysis of small molecule inhibitors of T-cell specific antigen receptor-induced NF-kB activation in a Jurkat cell line using a luminescence assay - Set 2. [Related pubchem assays (depositor defined):AID435003, AID435012, AID465]; assay type: functional, cell-based; settings: Homo sapiens
HEK293 [25] = experiment: SAR Analysis of small molecule inhibitors of T-cell specific antigen receptor-induced NF-kB activation in a HEK-293T cell line using a luminescence assay - Set 2. [Related pubchem assays (depositor defined):AID435003, AID435012, AID489026]; assay type: functional, cell-based; settings: Homo sapiens
INS1 = experiment: beta cell apoptosis inhibitors, cytokine rescue, dose response, luminescence, retest (AID 449756); assay type: functional, cell-based; settings: Rattus norvegicus;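 further: cell death triggered by IL-1 beta plus TNF-alpha plus IFN-gamma mixture; protective hits raise ATP signal compared with cytokine alone wells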
[26] = target: ATP-dependent molecular chaperone HSP82 (Candida albicans (strain WO-1) (Yeast), UniProt C4YTQ8); experiment: loss of DOC-induced GRE-beta-galactosidase reporter signal, dose response, Hsp90 inhibitor project, S. cerevisiae, luminescence (AID 2400); assay type: functional, cell-based;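 further: beta-galactosidase luminescence from glucocorticoid response element reporter as proxy for Hsp90 function; inhibitor potency where signal loss means Hsp90 inhibition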
[27] = Shn3 3'UTR reporter inhibitors, dose response, cell-based, Clone20 osteoblasts, firefly luciferase, cherry-picked (AID 624132); assay type: functional;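 further: firefly luciferase luminescence from reporter carrying the Shn3 3'UTR in osteoblasts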
[28] = HepG2 cell cytotoxicity, dose response, cytotoxicity control for Shn3 inhibitor project, CellTiter-Glo, cherry-picked (AID 624134); assay type: functional, cell-based
[29] = control 3'UTR Renilla luciferase suppression, dose response, counter-screen for Shn3 inhibitor project, cell-based, Clone20-Shn3RL, cherry-picked (AID 624133); assay type: functional
HEK293 [30] = experiment: cells; assay type: functional, cell-based; settings: Homo sapiens
[31] = target: Nuclear receptor subfamily 0 group B member 1 (Homo sapiens, UniProt P51843); experiment: Luminescence-based cell-based high throughput dose response assay for inhibitors of the orphan nuclear receptor subfamily 0, group B, member 1 (DAX1; NR0B1). [Related pubchem assays (depositor defined):AID504766, AID504790]; assay type: functional

T1 sequence (Q9Y256 whole entry): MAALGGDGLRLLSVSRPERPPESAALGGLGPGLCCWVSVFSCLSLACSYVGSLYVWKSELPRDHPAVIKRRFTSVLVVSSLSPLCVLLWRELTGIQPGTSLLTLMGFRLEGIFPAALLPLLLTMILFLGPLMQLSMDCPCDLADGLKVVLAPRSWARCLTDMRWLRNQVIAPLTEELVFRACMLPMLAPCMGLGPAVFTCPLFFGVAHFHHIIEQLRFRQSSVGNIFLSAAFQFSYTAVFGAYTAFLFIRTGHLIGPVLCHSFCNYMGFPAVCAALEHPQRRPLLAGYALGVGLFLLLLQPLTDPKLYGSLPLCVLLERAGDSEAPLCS
T3 sequence (P11940 whole entry): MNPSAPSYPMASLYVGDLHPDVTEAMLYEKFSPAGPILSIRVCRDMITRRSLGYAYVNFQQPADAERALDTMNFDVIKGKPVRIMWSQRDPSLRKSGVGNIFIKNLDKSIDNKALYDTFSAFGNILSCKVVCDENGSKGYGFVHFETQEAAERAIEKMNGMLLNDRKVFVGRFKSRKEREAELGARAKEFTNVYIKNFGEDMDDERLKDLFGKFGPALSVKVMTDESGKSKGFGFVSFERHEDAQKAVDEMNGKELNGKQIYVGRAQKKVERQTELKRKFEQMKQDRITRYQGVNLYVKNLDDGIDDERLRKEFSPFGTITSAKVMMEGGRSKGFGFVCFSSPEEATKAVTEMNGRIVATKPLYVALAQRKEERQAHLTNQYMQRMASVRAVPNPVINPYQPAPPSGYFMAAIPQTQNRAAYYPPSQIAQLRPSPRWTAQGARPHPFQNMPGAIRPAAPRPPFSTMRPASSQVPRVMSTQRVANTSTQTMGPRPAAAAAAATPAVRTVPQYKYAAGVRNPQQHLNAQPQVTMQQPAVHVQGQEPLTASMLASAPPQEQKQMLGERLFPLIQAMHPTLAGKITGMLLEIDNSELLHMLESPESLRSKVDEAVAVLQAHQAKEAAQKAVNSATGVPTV
Genome polyprotein, sequence (P29990 2492-3391 limits assumed): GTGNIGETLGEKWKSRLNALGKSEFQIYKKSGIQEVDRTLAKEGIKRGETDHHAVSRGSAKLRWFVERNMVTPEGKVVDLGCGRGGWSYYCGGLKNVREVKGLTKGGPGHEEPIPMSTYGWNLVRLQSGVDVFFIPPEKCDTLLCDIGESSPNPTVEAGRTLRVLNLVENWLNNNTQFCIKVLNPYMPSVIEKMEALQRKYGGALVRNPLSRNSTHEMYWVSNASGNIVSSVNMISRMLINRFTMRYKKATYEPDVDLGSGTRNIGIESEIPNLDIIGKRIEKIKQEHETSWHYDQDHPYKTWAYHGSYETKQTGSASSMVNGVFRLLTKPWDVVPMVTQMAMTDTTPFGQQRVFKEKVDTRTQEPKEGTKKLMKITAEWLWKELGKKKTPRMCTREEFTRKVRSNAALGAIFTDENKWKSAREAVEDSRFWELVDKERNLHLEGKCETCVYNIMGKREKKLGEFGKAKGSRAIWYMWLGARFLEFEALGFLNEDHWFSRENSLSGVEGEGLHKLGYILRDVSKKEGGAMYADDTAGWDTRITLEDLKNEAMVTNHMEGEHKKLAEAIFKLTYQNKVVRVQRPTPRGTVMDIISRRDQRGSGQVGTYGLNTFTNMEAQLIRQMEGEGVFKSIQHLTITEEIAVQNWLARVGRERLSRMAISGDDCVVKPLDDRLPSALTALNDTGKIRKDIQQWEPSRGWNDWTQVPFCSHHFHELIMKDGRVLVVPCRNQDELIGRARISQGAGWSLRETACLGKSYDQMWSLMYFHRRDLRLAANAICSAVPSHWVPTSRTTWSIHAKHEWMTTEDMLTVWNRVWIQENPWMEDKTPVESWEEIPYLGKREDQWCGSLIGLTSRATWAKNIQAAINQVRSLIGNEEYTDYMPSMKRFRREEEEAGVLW
Glucose-6-phosphate 1-dehydrogenase, sequence (P11413 whole entry): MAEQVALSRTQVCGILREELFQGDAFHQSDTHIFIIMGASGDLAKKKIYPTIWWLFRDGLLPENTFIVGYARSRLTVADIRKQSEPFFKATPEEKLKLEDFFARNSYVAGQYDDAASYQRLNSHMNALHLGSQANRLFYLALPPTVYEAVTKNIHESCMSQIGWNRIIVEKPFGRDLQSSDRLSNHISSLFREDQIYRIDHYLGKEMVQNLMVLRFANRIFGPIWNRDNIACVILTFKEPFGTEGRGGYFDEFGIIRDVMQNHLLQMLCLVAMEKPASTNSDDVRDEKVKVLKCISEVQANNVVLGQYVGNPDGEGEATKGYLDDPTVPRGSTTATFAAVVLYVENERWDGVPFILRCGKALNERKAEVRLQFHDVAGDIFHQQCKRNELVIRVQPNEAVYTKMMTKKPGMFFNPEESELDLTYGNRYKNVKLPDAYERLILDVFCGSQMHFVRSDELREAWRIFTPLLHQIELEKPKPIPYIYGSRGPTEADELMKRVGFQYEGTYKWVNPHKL
ATP-dependent molecular chaperone HSP82, sequence (C4YTQ8 whole entry): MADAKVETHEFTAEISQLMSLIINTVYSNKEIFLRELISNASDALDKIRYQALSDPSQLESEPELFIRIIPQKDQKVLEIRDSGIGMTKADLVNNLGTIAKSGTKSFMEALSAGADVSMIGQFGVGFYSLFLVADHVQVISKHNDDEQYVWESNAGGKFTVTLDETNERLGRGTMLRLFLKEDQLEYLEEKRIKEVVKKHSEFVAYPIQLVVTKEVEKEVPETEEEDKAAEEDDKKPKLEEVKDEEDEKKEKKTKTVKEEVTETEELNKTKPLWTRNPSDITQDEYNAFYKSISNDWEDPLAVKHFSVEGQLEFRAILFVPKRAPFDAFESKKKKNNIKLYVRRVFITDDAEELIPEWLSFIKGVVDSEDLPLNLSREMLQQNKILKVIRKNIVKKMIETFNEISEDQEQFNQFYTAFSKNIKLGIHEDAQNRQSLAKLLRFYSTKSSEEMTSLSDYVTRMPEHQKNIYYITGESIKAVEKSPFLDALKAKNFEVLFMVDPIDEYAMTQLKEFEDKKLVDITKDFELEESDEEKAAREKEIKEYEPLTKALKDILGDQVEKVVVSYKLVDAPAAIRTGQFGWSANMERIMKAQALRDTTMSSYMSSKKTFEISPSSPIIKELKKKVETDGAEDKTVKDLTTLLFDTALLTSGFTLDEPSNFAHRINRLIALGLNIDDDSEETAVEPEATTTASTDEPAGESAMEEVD
Transitional endoplasmic reticulum ATPase (Homo sapiens, UniProt P55072), sequence (P55072 whole entry): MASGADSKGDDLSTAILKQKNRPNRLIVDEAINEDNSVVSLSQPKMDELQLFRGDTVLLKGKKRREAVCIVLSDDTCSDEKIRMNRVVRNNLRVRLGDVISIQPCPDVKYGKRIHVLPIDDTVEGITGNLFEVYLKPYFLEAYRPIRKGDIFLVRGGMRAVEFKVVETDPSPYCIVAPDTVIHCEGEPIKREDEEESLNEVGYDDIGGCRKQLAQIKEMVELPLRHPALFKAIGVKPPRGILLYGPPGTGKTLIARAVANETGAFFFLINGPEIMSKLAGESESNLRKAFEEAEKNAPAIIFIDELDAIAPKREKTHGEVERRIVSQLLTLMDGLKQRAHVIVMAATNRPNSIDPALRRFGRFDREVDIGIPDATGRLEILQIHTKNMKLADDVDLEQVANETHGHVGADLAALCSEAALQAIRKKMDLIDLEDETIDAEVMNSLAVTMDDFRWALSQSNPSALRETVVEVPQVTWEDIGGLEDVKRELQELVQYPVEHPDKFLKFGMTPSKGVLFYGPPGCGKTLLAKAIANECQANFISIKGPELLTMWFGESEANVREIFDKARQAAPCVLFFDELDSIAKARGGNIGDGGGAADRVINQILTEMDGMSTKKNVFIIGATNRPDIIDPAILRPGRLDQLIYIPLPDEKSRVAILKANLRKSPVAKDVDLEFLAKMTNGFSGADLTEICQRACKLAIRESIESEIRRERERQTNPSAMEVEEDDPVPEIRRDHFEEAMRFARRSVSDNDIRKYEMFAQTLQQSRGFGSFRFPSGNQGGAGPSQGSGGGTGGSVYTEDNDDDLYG
Serine/threonine-protein phosphatase, sequence (B9W6M3 whole entry): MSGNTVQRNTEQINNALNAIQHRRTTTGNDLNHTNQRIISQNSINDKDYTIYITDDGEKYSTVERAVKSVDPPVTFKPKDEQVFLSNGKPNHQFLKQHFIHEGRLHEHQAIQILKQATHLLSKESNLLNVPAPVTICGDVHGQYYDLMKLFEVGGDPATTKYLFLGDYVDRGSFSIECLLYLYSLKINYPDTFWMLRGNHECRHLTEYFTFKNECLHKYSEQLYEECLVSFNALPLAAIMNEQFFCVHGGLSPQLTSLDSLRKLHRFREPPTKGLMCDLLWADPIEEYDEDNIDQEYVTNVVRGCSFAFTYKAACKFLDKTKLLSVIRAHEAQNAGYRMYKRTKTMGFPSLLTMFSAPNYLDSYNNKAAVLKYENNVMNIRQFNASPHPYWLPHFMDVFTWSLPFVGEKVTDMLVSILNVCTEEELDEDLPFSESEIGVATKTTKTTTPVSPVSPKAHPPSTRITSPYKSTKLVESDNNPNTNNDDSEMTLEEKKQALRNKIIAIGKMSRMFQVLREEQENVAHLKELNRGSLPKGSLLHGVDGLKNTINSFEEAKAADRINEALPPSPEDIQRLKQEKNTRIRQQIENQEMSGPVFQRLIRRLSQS
Beta-arrestin-1, sequence (P49407 whole entry): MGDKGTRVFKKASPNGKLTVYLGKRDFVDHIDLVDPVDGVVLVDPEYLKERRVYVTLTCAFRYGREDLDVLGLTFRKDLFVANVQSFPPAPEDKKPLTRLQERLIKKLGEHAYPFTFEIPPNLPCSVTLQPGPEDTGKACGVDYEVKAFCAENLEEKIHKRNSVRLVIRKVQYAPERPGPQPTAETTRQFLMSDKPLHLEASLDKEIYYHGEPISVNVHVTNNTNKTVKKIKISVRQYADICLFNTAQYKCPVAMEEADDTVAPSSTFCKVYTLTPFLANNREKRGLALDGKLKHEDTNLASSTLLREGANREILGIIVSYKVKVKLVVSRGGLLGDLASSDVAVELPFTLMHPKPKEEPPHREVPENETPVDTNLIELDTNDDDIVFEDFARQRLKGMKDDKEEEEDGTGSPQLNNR

SMILES: NCCNC(=O)c1ncsc1-c1cccc(F)c1
AC50 [1]: 35.5 µM (inconclusive)

AC50 (CAAX prenyl protease 2 [2]): 49.5 µM (active)
AC50 (CAAX prenyl protease 2 [3]): 33.6 µM (active)
SMILES: CN(C)CCCN(C(=O)c1cc(-c2cccs2)nc2ccccc12)c1nc2ccc(F)cc2s1

IC50 (Cysteine protease ATG4B): 11.8 µM (active)
IC50 (Phospholipase A2): 7.22 µM (active)
SMILES: O=C(c1ccc(OC2CCN(C/C=C/c3ccc(F)cc3)CC2)cc1)N1CCCC1

SMILES: O=C(c1cccs1)N1CCN(c2ccnc3cc(Cl)ccc23)CC1
AC50 (Candida albicans [4]): 2.96 µM (active)
AC50 (Candida albicans [5]): 1.71 µM (active)
AC50 (Candida albicans [6]): 5.31 µM (active)
AC50 (NIH3T3): 17.9 µM (active)

AC50 (CAAX prenyl protease 2 [7]): 1.53 µM (active)
AC50 (CAAX prenyl protease 2 [3]): 37.1 µM (active)
AC50 (CAAX prenyl protease 2 [8]): 15.3 µM (active)
SMILES: CCOc1cccc(-c2c(C(=O)N/N=C/c3cccs3)nnn2-c2nonc2N)c1

IC50 [9]: > 50 µM (not active)
IC50 [10]: > 50 µM (not active)
IC50 [11]: > 80 µM (inactive)
IC50 (Beta-arrestin-1): 11 µM (active)
IC50 (Genome polyprotein): 4.59 µM (active)
IC50 [12]: > 66 µM (inactive)
IC50 [13]: > 66 µM (inactive)
AC50 (Caspase-6): 0.351 µM (active)
SMILES: NS(=O)(=O)c1ccc(N/N=C/c2ccc(O)c(O)c2O)c([N+](=O)[O-])c1

SMILES: CCCCC(=O)NC(c1ccc(Cl)cc1Cl)c1ccc2cccnc2c1O (stereo unspecified)
EC50 [14]: 13.3 µM (active)
EC50 [15]: 1.29 µM (active)
EC50 (cells [16]): 8.53 µM (active)
EC50 [17]: 0.698 µM (active)
EC50 [18]: 0.126 µM (active)
EC50 (cells [19]): > 350 µM (not active)
EC50 [20]: > 180 µM (inactive)
EC50 [21]: 0.57 µM (active)
EC50 (Streptococcus): 2.12 µM (active)
IC50 [22]: > 80 µM (inactive)
AC50 (HEK293 [23]): 4.57 µM (active)
IC50 (HEK293 [24]): 26.8 µM (inactive)
IC50 (Jurkat): 3.7 µM (active)
IC50 (HEK293 [25]): 3.23 µM (active)
AC50 (INS1): 0.422 µM (active)
EC50 [26]: > 150 µM (inactive)
AC50 [27]: 0.67 µM (active)
AC50 [28]: > 70 µM (inactive)
AC50 [29]: 0.861 µM (active)

SMILES: COc1cc(C(=O)O)cc(OC)c1OC [3,4,5-TRIMETHOXYBENZOIC ACID]
IC50 (HEK293 [30]): > 67.5 µM (inactive)
IC50 [31]: > 67.5 µM (inactive)
